Measurements from US20020137162A1, “Antisense oligonucleotide inhibition of specific histone deacetylase isoforms” (priority 2000, published 2002).
d = 2'-deoxy (DNA); m = 2'-O-methyl

Key:
HMEC [1] = assay: Apoptosis, Cell Death Detection ELISA; type: cell-based, human; conditions: fold over non-specific background, TSA at 100 ng/ml
Procedure: (§1) In order to determine the effect of HDAC OSDNs on cell growth and cell death through apoptosis, A549 or T24 cells, MDAmb231 cells, and HMEC cells (ATCC, Manassas, Va.) were treated with HDAC OSDNs as previously described.
(§2) For the apoptosis study, cells were analyzed using the Cell Death Detection ELISA ^PLUSkit (Roche Diagnostic GmBH, Mannheim, Germany) according to the manufacturer's directions. Typically, 10,000 cells were plated in 96-well tissue culture dishes for 2 hours before harvest and lysis. Each sample was analyzed in duplicate. ELISA reading was done using a MR700 plate reader (DYNEX Technology, Ashford, Middlesex, England) at 410 nm. The reference was set at 490 nm.

MDAmb231 [2] = assay: Apoptosis, Cell Death Detection ELISA; type: cell-based, human; conditions: fold over non-specific background, TSA at 100 ng/ml
Procedure: as §1, §2

A549 [3] = assay: Apoptosis, Cell Death Detection ELISA; type: cell-based, human; conditions: fold over non-specific background, TSA at 100 ng/ml
Procedure: as §1, §2

T24 [4] = assay: Apoptosis, Cell Death Detection ELISA; type: cell-based, human; conditions: fold over non-specific background, TSA at 100 ng/ml
Procedure: as §1, §2

p21 protein = assay: Western blot of p21 protein in A549 cells; type: cell-based, human
Procedure: Experiments were also conducted to examine the affect of HDAC antisense oligonucleotides on HDAC protein expression. In A549 cells, treatment with HDAC-4 antisene oligonucleotides results in a dramatic increase in the level of p21 protein (FIG. 15).

human HDAC-4 = assay: Antisense ODN screen, HDAC-4 RNA, T24 cells; type: cell-based; conditions: 100 nM, 24 hours, Northern blot
Procedure: Seventeen phosphorothioate ODNs containing sequences complementary to the 5′ or 3′ UTR of the human HDAC-4 gene (GenBank Accession No. AB006626) were screened as above. […] HDAC-4 MM1 and MM2 oligonucleotides were created as controls; compared to the antisense oligonucleotides, they each contain a 6-base mismatch.
(§3) Briefly, human A549 and/or T24 human bladder carcinoma cells were seeded in 10 cm tissue culture dishes one day prior to oligonucleotide treatment. The cell lines were obtained from the American Type Culture Collection (ATCC) (Manassas, Va.) and were grown under the recommended culture conditions. Before the addition of the oligonucleotides, cells were washed with PBS (phosphate buffered saline). Next, lipofectin transfection reagent (GIBCO BRL Mississauga, Ontario, Calif.), at a concentration of 6.25 μg/ml, was added to serum free OPTIMEM medium (GIBCO BRL, Rockville, Md.), which was then added to the cells. The oligonucleotides to be screened were then added directly to the cells (i.e., one oligonucleotide per plate of cells). Mismatched oligonucleotides were used as controls. The same concentration of oligonucleotide (e.g., 50 nM) was used per plate of cells for each oligonucleotide tested.
(§4) Cells were harvested, and total RNAs were analyzed by Northern blot analysis. Briefly, total RNA was extracted using RNeasy miniprep columns (QIAGEN). […]

MDAmb231 [5] = assay: Cell growth inhibition, trypan blue cell count; type: cell-based, human; conditions: MDAmb231 cancer cells, 50 nM, 72 hours
Procedure: as §1
(§5) Cells were harvested and cell numbers counted by trypan blue exclusion using a hemocytometer. Percentage of inhibition was calculated as (100—AS cell numbers/control cell numbers) %.

A549 [6] = assay: Cell growth inhibition, trypan blue cell count; type: cell-based, human; conditions: A549 cancer cells, 50 nM, 72 hours
Procedure: as §1, §5

T24 [7] = assay: Cell growth inhibition, trypan blue cell count; type: cell-based, human; conditions: T24 cancer cells, 50 nM, 72 hours
Procedure: as §1, §5

HDAC-6 protein = assay: Western blot of HDAC isotype protein expression in A549 cells, HDAC-6; type: cell-based, human; conditions: 50 nM, 48 hours
Procedure: OSDN treatment conditions were as previously described.
Cells were lysed in buffer containing 1% Triton X-100, 0.5% sodium deoxycholate, 5 mM EDTA, 25 mM Tris-HC1, pH 7.5, plus protease inhibitors. Total protein was quantified by the protein assay reagent from Bio-Rad (Hercules, Calif.). 100 ug of total protein was analyzed by SDS-PAGE. Next, total protein was transferred onto a PVDF membrane and probed with various HDAC-specific primary antibodies. Rabbit anti-HDAC-1 (H-51), anti-HDAC-2 (H-54) antibodies (Santa Cruz Biotechnologies, Santa Cruz, Calif.) were used at 1:500 dilution. Rabbit anti-HDAC-3 antibody (Sigma, St. Louis, Mo.) was used at a dilution of 1:1000. Anti-HDAC-4 antibody was prepared as previously described (Wang, S. H. et al., (1999) Mol. Cell. Biol. 19:7816-27), and was used at a dilution of 1:1000. Anti-HDAC-6 antibody was raised by immunizing rabbits with a GST fusion protein containing a fragment of HDAC-6 protein (amino acid #990 to #1216, GenBank Accession No. AAD29048). Rabbit antiserum was tested and found only to react specifically to the human HDAC-6 isoform. HDAC-6 antiserum was used at 1:500 dilution in Western blots to detect HDAC-6 in total cell lysates. Horse Radish Peroxidase conjugated secondary antibody was used at a dilution of 1:5000 to detect primary antibody binding. […]

human cancer cells = assay: Cell growth and apoptosis, summary for cancer cells; type: cell-based; conditions: Tables 3 and 4
Procedure: as §1, §2, §5

human HDAC-6 = assay: Antisense ODN screen, HDAC-6 RNA, T24 cells; type: cell-based; conditions: 100 nM, 24 hours, Northern blot
Procedure: Thirteen phosphorothloate ODNs containing sequences complementary to the 5′ or 3′ untranslated regions of the human HDAC-6 gene (GenBank Accession No. AJ011972) were screened as above. […] HDAC-6MM oligo was created as a control; compared to the antisense oligo, it contains a 7-base mismatch.
as §3, §4

A549 cells = assay: Growth in soft agar, colony count; type: cell-based, human; conditions: colonies counted after three weeks
Procedure: 1.3 g granulated agar (DIDFCO) was added to 100 ml deionized water and boiled in a microwave to sterilize. The boiled agar was held at 55 C until further use. Iscove's Modified Dulbecco×s Medium (GIBCO/BRL), 100× Penicillin-Streptomycin-Glutamine (GIBCO/BRL) and fetal bovine serum (medicorp) were pre-warmed at 37 C. To 50 ml sterile tubes was added 9 ml Isove's medium, 2 ml fetal bovine serum and 0.2 ml 100× Pen-Strep-Gln. Then 9 ml 55 C 1.3% agar was added to each tube. The tube contents were mixed immediately, avoiding air bubbles, and 2.5 ml of the mixture was poured into each sterile 6 cm petri dish to form a polymerized bottom layer. Dishes with polymerized bottom layers were then put in a CO2 incubator at 37 C until further use. In 50 ml sterile tubes were prewarmed at 37 C for each 4 cell lines/samples, 20 ml Iscove's medium, 0.4 ml 100× Pen-Strep-Gln and 8 ml fetal bovine serum. Cells were trypsinized and counted by trypan blue staining and 20,000 cells were aliquotted into a sterile 15 ml tube. To the tube was then added DMEM with low glucose (GIBCO/BRL)+10% fetal bovine serum+Pen-Strep-Gln to a final volume of 1 ml. To the prewarmed 37 C mix in the 50 ml tube was quickly added 8 ml 55 C 1.3% agar, which was then mixed well. […] Plates were wrapped up in foil paper and incubated in a CO2 incubator at 37° C. for three weeks, at which time colonies in agar are counted.

HMEC [8] = assay: Cell growth inhibition, trypan blue cell count; type: cell-based, human; conditions: HMEC normal cells, 50 nM, 72 hours
Procedure: as §1, §5

Substance	Apoptosis After 48 Hour Treatment (HMEC [1])	Apoptosis After 48 Hour Treatment (MDAmb231 [2])	Apoptosis After 48 Hour Treatment (A549 [3])	Apoptosis After 48 Hour Treatment (T24 [4])	level of p21 protein (p21 protein)	antisense activity to human HDAC-4 (human HDAC-4)	Growth Inhibition (AS vs. MM) (MDAmb231 [5])	Growth Inhibition (AS vs. MM) (A549 [6])	Growth Inhibition (AS vs. MM) (T24 [7])	HDAC-6 protein expression (HDAC-6 protein)	growth arrest and apoptosis of human cancer cells (human cancer cells)	antisense activity to human HDAC-6 (human HDAC-6)	growth of A549 cells in soft agar (A549 cells)	Growth Inhibition (AS vs. MM) (HMEC [8])
5-GCTGCCTGCCGTGCCCACCC-3′ (sugars from the 5' end m4 d12 m4, all phosphorothioate, methylation of C and T or U not given here) [HDAC-4 AS1]	− (“−”: <= 2x fold over non-specific background)	++ (“++”: 3-5X fold)	+++ (“+++”: 5-8X fold)	+ (“+”: 2-3X fold)	induces the expression	antisense activity	++ (“++”: 50-75% inhibition)	+++ (“+++”: >75% inhibition)	++ (“++”: 50-75% inhibition)					
5′-CAGGCTGGAATGAGCTACAG-3′ (chemistry not given here) [HDAC-6 AS]	− (“−”: <= 2x fold over non-specific background)	− (“−”: <= 2x fold over non-specific background)	− (“−”: <= 2x fold over non-specific background)	− (“−”: <= 2x fold over non-specific background)				− (“−”: no inhibition)	− (“−”: no inhibition)	specifically inhibits	no effect	antisense activity	do not	− (“−”: no inhibition)
